Data on one molecule can be found in patent US20250051350A1, “Dihydroartemisinin derivatives and the treatment of fibrotic diseases” (GreenStone Biosciences, Inc., priority 2023, published 2025).

In brackets after ≈: the same amount, converted by molar mass. Where two headings read alike, the source gives them in different places. Some results are limits rather than exact numbers.

In data set [1] the test system is Induced pluripotent stem cell-derived cardiac fibroblasts (ACTA2-GFP). Description: Antifibrotic effects in TGF-β-activated iPSC-derived cardiac fibroblasts (ACTA2-GFP fluorescence). The data set is classed as cell-based. The conditions noted are these: TGF-β-activated iPSC-derived cardiac fibroblasts. An excerpt:
Induced pluripotent stem cell-derived cardiac fibroblasts were constructed containing a fusion of the alpha-smooth muscle actin to the green fluorescent protein (ACTA2-GFP) construct. ACTA2 is a myofibroblast marker, such that the fibroblasts fluoresce with an intensity dependent on the extent of fibrosis.

Data set [2] is described as follows: Intravenous and oral pharmacokinetics in mice. The data set is classed as in vivo. The note with it: mouse, plasma, male C57BL/6J mice. Here is the method:
The intravenous (IV) and oral (PO) pharmacokinetics of the PT compounds were measured in 6-10 week-old male C57BL/6J mice, using three mice/group. The test compounds were formulated in an appropriate water-based vehicle to give a clear solution for IV administration, or a clear solution or uniform suspension for PO administration. Animals were dosed within 4 hours of the preparation of the formulations; with the dose volume being determined by the animal's body weight measured on the morning of the dosing day. Blood samples (about 25 μL per time point) were taken at 5 and 15 minutes and 1, 3, and 5 hours after dosing, into pre-chilled EDTA-K2 tubes and kept on wet ice until centrifugation. The tubes were centrifuged at 3200×g at about 4° C. for 10 minutes, and the plasma analyzed by LC-MS/MS.

The nature of data set [3]: in vitro. The data set is classed as in vitro ADME. The conditions noted are these: for fraction unbound: plasma. Here is the method: Plasma protein binding assays were conducted in triplicate for compounds PT-2, PT-14, PT-28, and PT-30, with artesunate, DHA, and warfarin as comparators.
In data set [4] the test system is MD2 signaling pathway (HEK Blue-TLR4 cells). As to the kind of experiment: HEK Blue-TLR4 assay (MD2 pathway). The data set is classed as cell-based. The note with it: 1 h preincubation, 10 ng/mL lipopolysaccharide, read after 20 hours at 655 nm. How it is done:
HEK Blue-TLR4 cells were plated in detection media, preincubated with vehicle or PT-2, PT-14, or PT-30 dissolved in vehicle (with artesunate, DHA, and artemisinin comparators) for 1 h, then co-stimulated with 10 ng/mL lipopolysaccharide. Reporter activity was read after 20 hours at 655 nm in a spectrophotometer. The PT compounds were active in this assay, showing that they inhibit the MD2 signaling pathway.

Data set [5] has as its system primary pulmonary fibroblasts. Description: Antifibrotic efficacy in primary pulmonary fibroblasts. The data set is classed as cell-based.
Data set [6] has as its system CCl4 injury mouse liver model. Description: CCl4 injury mouse liver model. The data set is classed as in vivo. The conditions noted are these: oral administration.
Data set [7] has as its system bleomycin injury mouse skin model. As to the kind of experiment: Bleomycin injury mouse skin model. The data set is classed as in vivo. The note with it: topical administration (50 μL, 100 μM in 0.1% DMSO/PBS).
The nature of data set [8]: Solubility of PT-30. The data set is classed as physicochemical. Here is the method: (§1) PT-30, DHA 5-oxo-2,6-diazaspiro[3.4]octane-2-carboxylate, (3R,5aS,6R,8aS,9R,12S,12aR)-decahydro-3,6,9-trimethyl-3,12-epoxy-12H-pyrano[4,3-j]-1,2-benzodioxepin-10-yl 5-oxo-2,6-diazaspiro[3.4]octane-2-carboxylate, was a white crystalline solid as prepared. […] PT-30 had low solubility (<0.1 mg/mL) in aqueous acidic conditions and in simulated gastric fluid, and a solubility of about 0.7 mg/mL in fasted-state and fed-state simulated intestinal fluids.

Data set [9] is described as follows: Solid-state stability of PT-30. The data set is classed as physicochemical. Here is the method: as §1
Data set [10] in a line: Hygroscopicity of PT-30. The data set is classed as physicochemical. The conditions noted are these: from 40% to 95% RH. How it is done:
as §1

As usually defined, the bioavailability is the share of a dose that reaches the circulation, judged against a reference dose that is usually intravenous. Usually fraction unbound stands for the share of the substance not bound to proteins or other matrix. A low value points to extensive binding. By solubility is commonly meant the concentration that dissolves in the medium under given conditions. Read a high solubility as much dissolved substance. Turning to `C[C@@H]1CC[C@H]2[C@@H](C)C(OC(=O)N3CC4(CCNC4=O)C3)O[C@H]3O[C@@]4(C)CC[C@@H]1[C@]32OO4` (stereo partly drawn) [PT-30, (3R,5aS,6R,8aS,9R,12S,12aR)-decahydro-3,6,9-trimethyl-3,12-epoxy-12H-pyrano[4,3-j]-1,2-benzodioxepin-10-yl 5-oxo-2,6-diazaspiro[3.4]octane-2-carboxylate], in data set [1], the “antifibrotic efficacy in this model” value was “demonstrated antifibrotic efficacy”. The bioavailability in data set [2] (PO) was 73%. This molecule showed a clearance in data set [2] (IV) of 30 mL/min/kg. Also, the AUC(0-t) is 5300 ng·h/mL in [2] (IV, read-out: IV AUC0-last) and 40900 ng·h/mL in [2] (PO, read-out: PO AUC0-last). In addition, the half-life in [2] (IV, read-out: IV T1/2 (converted)) was 13.2 min; in data set [2] (PO, read-out: PO T1/2 (converted)), 20.4 min. The Vd in data set [2] (IV, read-out: IV VD,ss) came to 0.6 L/kg. Also, the figures for the recovery in data set [3] (human) and in data set [3] (mouse) were 84.9% and 87.6%, respectively. The free fraction (fraction unbound) in [3] (human) amounted to 0.455; in data set [3] (mouse) it was 0.079. In addition, the “activity in HEK Blue-TLR4 reporter assay (inhibition of MD2 signaling pathway)” value in [4] is reported as “active”. The “antifibrotic efficacy, effect on acta2, colla1, and CTGF” value in data set [5] was “demonstrated antifibrotic efficacy”. Besides, the antifibrotic efficacy result in [6] and in [7] was “demonstrated antifibrotic efficacy” each time. The solubility in [8] (aqueous acidic conditions, aqueous buffer) is less than 100 µg/mL; in [8] (fasted-state simulated intestinal fluid, fassif) it was roughly 700 µg/mL (≈ 1600 µM); in data set [8] (fed-state simulated intestinal fluid, fessif), roughly 700 µg/mL (≈ 1600 µM); in data set [8] (simulated gastric fluid), less than 100 µg/mL. Also, the “solubility in organic solvents” value in data set [8] (common organic solvents, greatest in methanol and tetrahydrofuran) is reported as “soluble in common organic solvents”. The “chemical and crystal form stability” value in data set [9] (25° C./60% RH for 1 week) and in [9] (40° C./75% RH for 1 week) was “chemically stable without crystal form change” throughout. The “hygroscopicity, water uptake” value in data set [10] is 0.5%.
